# Read-outs that look alike come from different tables or passages of the source.
# Tests used:
# WDR5 = WDR5 (Homo sapiens, UniProt P61964); experiment: TR-FRET competition binding assay, displacement of 10mer-Thr-FAM MLL peptide probe from His-tagged WDR5; conditions: WDR5-His tag (residues 24-334) 2 nM; 10mer-Thr-FAM 150 nM; 60 min, room temperature; read-out: Ki for Inhibition of WDR5 by TR-FRET assay
# [1] = test system: MV4:11 human cancer cell lines; experiment: Cellular viability / anti-proliferative assay, CellTiter-Glo, 5 day protocol; assay type: cell-based; conditions: Homo sapiens, MV4-11, 120 h, read-out: GI50 on cellular proliferation of MV4:11 human cancer cell lines
# Summary of the method: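 Luminescent ATP-based viability (CellTiter-Glo) after a 5-day exposure gave GI50 via sigmoidal fitting, averaged over two or more replicates. Compounds spanned 22 two-fold steps down from 30 μM at 0.3% DMSO, on 200 MV-4-11 cells per well grown in IMDM plus 10% FBS.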
# [2] = MV4:11 cells, 5 day incubation, CellTiter-Glo, mean of at least two replicates
Structure (SMILES),Ki (WDR5),"GI50 [1, 2]",GI50 [1]
"COc1ccc2c(c1)C(N1CCc3c(cc(Cn4ccnc4)cc3-c3cn(C)nc3C(F)(F)F)C1=O)CCO2 (stereo not drawn) [Example 67, 7-((1H-Imidazol-1-yl)methyl)-2-(6-methoxychroman-4-yl)-5-(1-methyl-3-(trifluoromethyl)-1H-pyrazol-4-yl)-3,4-dihydroisoquinolin-1(2H)-one]",0.062 nM,35 nM,–
"CCc1cc(C(=O)NCC2CN(C(=O)c3cscn3)C2)c2nccc(N3CCc4c(cc(Cn5ccnc5)cc4-c4cn(C)nc4C(F)(F)F)C3=O)c2c1 [Example 220, 4-(7-((1H-Imidazol-1-yl)methyl)-5-(1-methyl-3-(trifluoromethyl)-1H-pyrazol-4-yl)-1-oxo-3,4-dihydroisoquinolin-2(1H)-yl)-6-ethyl-N-((1-(thiazole-4-carbonyl)azetidin-3-yl)methyl)quinoline-8-carboxamide]",< 0.02 nM,< 20 nM,–
"COc1ccc(N2CCc3c(cc(Cn4ccnc4C)cc3-c3cn(C)nc3C(F)(F)F)C2=O)c2cc(C)cnc12 [Example 11, 2-(8-Methoxy-3-methylquinolin-5-yl)-7-((2-methyl-1H-imidazol-1-yl)methyl)-5-(1-methyl-3-(trifluoromethyl)-1H-pyrazol-4-yl)-3,4-dihydroisoquinolin-1(2H)-one]",0.035 nM,3890 nM,–
"COc1cc(C2CCOCC2)c2nc(C)cc(N3CCc4c(cc(Cn5ccnc5)cc4-c4cn(C)nc4C(F)(F)F)C3=O)c2c1 [Example 165, 7-((1H-Imidazol-1-yl)methy)-2-(6-methoxy-2-methyl-8-(tetrahydro-2H-pyran-4-yl)quinolin-4-yl)-5-(1-methyl-3-(trifluoromethyl)-1H-pyrazol-4-yl)-3,4-dihydroisoquinolin-1(2H)-one]",0.042 nM,–,129 nM
COc1cnc2c(c1)c(N1CCc3c(cc(Cn4ccnc4)cc3-c3cn(C)nc3C(F)(F)F)C1=O)cn2C [Example 83],< 0.02 nM,45 nM,–
"Cn1cc(-c2cc(Cn3ccnc3)cc3c2CCN(c2cccc4ncc(C5CC5)cc24)C3=O)c(C(F)(F)F)n1 [Example 130, 7-((1H-Imidazol-1-yl)methyl)-2-(3-cyclopropylquinolin-5-yl)-5-(1-methyl-3-(trifluoromethyl)-1H-pyrazol-4-yl)-3,4-dihydroisoquinolin-1(2H)-one]",0.051 nM,–,218 nM
"CCc1cc(N2CCOCC2)c2nccc(N3CCc4c(cc(Cn5ccnc5)cc4-c4cn(C)nc4C(F)(F)F)C3=O)c2c1 [Example 36, 7-((1H-Imidazol-1-yl)methyl)-2-(6-ethyl-8-morpholinoquinolin-4-yl)-5-(1-methyl-3-(trifluoromethyl)-1H-pyrazol-4-yl)-3,4-dihydroisoquinolin-1(2H)-one]",< 0.02 nM,23 nM,–
"CCc1cc(OC)c2cncc(N3CCc4c(cc(Cn5ccnc5)cc4-c4cn(C)nc4C(F)(F)F)C3=O)c2c1 [Example 116, 7-((1H-Imidazol-1-yl)methy)-6′-ethyl-8-methoxy-5-(1-methyl-3-(trifluoromethyl)-1H-pyrazol-4-yl)-3,4-dihydro-1H-[2,4′-biisoquinolin]-one]",0.028 nM,–,< 20 nM
"Cc1cnc2cccc(N3CCc4c(cc(Cn5ccnc5)cc4-c4cn(C)nc4C(F)(F)F)C3=O)c2c1 [Example 104, 7-((1H-Imidazol-1-yl)methyl)-5-(1-methyl-3-(trifluoromethyl)-1H-pyrazol-4-yl)-2-(3-methylquinolin-5-yl)-3,4-dihydroisoquinolin-1(2H)-one]",0.028 nM,24 nM,–
"Cc1nccn1Cc1cc2c(c(-c3cn(C)nc3C(F)(F)F)c1)CCN(C1CCOc3ccc(C4CC4)cc31)C2=O (stereo not drawn) [Example 63, 2-(6-Cyclopropylchroman-4-yl)-7-((2-methyl-1H-imidazol-1-yl)methyl)-5-(1-methyl-3-(trifluoromethyl)-1H-pyrazol-4-yl)-3,4-dihydroisoquinolin-1(2H)-one]",0.068 nM,87 nM,–

# Now from value to compound, other results behind:
Ki (WDR5),"GI50 [1, 2]",Structure (SMILES),GI50 [1]
0.045 nM,< 20 nM,"Cc1cc(OCCN(C)C)c2cncc(N3CCc4c(cc(Cn5ccnc5)cc4-c4cn(C)nc4C(F)(F)F)C3=O)c2c1 [Example 106, 7-((1H-Imidazol-1-yl)methyl)-8′-(2-(dimethylamino)ethoxy)-6′-methyl-5-(1-methyl-3-(trifluoromethyl)-1H-pyrazol-4-yl)-3,4-dihydro-1H-[2,4′-biisoquinolin]-1-one]",–
< 0.02 nM,35 nM,"CCc1cc(C(=O)NCCNC(C)=O)c2nccc(N3CCc4c(cc(Cn5ccnc5)cc4-c4cn(C)nc4C(F)(F)F)C3=O)c2c1 [Example 212, 4-(7-((1H-Imidazol-1-yl)methyl)-5-(1-methyl-3-(trifluoromethyl)-1H-pyrazol-4-yl)-1-oxo-3,4-dihydroisoquinolin-2(1H)-yl)-N-(2-acetamidoethyl)-6-ethylquinoline-8-carboxamide]",–
27 nM,29000 nM,"Cc1ccc2cncc(N3CCc4c(cc(C(O)c5cn(C)cn5)cc4-c4cn(C)nc4C(F)(F)F)C3=O)c2c1 (stereo not drawn) [Example 57, 7-(Hydroxy(1-methyl-1H-imidazol-4-yl)methyl)-6′-methyl-5-(1-methyl-3-(trifluoromethyl)-1H-pyrazol-4-yl)-3,4-dihydro-1H-[2,4′-biisoquinolin]-1-one]",–
< 0.02 nM,< 20 nM,"CCc1cc(COC2COC2)c2nccc(N3CCc4c(cc(Cn5ccnc5)cc4-c4cn(C)nc4C(F)(F)F)C3=O)c2c1 [Example 191, 7-((1H-Imidazol-1-yl)methyl)-2-(6-ethyl-8-((oxetan-3-yloxy)methyl)quinolin-4-yl)-5-(1-methyl-3-(trifluoromethyl)-1H-pyrazol-4-yl)-3,4-dihydroisoquinolin-1(2H)-one]",–
< 0.02 nM,< 20 nM,"CCc1cc(C(=O)NC2CC2)c2nccc(N3CCc4c(cc(Cn5ccnc5)cc4-c4cn(C)nc4C(F)(F)F)C3=O)c2c1 [Example 172, 4-(7-((1H-Imidazol-1-yl)methyl)-5-(1-methyl-3-(trifluoromethyl)-1H-pyrazol-4-yl)-1-oxo-3,4-dihydroisoquinolin-2(1H)-yl)-N-cyclopropyl-6-ethylquinoline-8-carboxamide]",–
< 0.02 nM,< 20 nM,"COc1ccc2c(c1)[C@@H](N1CCc3c(cc(Cn4ccnc4)cc3-c3cn(C)nc3C(F)(F)F)C1=O)CCO2 [Example 70, (S)-7-((1H-Imidazol-1-yl)methyl)-2-(6-methoxychroman-4-yl)-5-(1-methyl-3-(trifluoromethyl)-1H-pyrazol-4-yl)-3,4-dihydroisoquinolin-1(2H)-one]",–
0.042 nM,40 nM,"Cc1cc2c(N3CCc4c(cc(Cn5ccnc5)cc4-c4cn(C)nc4C(F)(F)F)C3=O)cccc2nc1C [Example 108, 7-((1H-imidazol-1-yl)methy)-2-(2,3-dimethylquinolin-5-yl)-5-(1-methyl-3-(trifluoromethyl)-1H-pyrazol-4-yl)-3,4-dihydroisoquinolin-1(2H)-one]",–
< 0.02 nM,59 nM,"CCn1cc(-c2cc(Cn3ccnc3)cc3c2CCN(c2cc(C)nc4ccc(OC)cc24)C3=O)c(C(F)(F)F)n1 [Example 53, 7-((1H-Imidazol-1-yl)methyl)-5-(1-ethyl-3-(trifluoromethyl)-1H-pyrazol-4-yl)-2-(6-methoxy-2-methylquinolin-4-yl)-3,4-dihydroisoquinolin-1(2H)-one]",–

# Reference: US12692249B2, “WDR5 inhibitors and modulators” (Vanderbilt University, priority 2019, dated 2026)
